From patent US7348161B2, “Macrolide efflux genetic assembly” (Emory University, priority 2001, dated 2008)
Converted amounts (≈) assume the structure as drawn. Blank lines part the entries; values can stand above or below the compound they belong to. Numbered stars: 1 amine (or outer) side, 2 acyl side, 3 side chain; on linkers, the order of the positions; unused ones are H or OH. Bridge positions count the residues as written; N and C are the ends. Square brackets hold non-standard residues; d marks the D form. Peptide text beside a SMILES is read from it. * marks the point of attachment. X1 = O=C1C[C@@H](C(=O)[*:2])N([*:1])C[C@H]1CS[C@@H]1CN2CCC1CC2; NMePhe(4-NMe2) = CN[C@@H](Cc1ccc(N(C)C)cc1)C(=O)O; Picolinoyl(3-OH) = O=C(c1ncccc1O)*; Phg = N[C@H](C(=O)O)c1ccccc1; dAbu = CC[C@@H](N)C(=O)O

Tests used:
MefE = details: proton motive function of MefE; refs [9,10]; cited from earlier work
[1] = tested on: invasive pneumococcal isolates; assay: Preliminary screening of 1998 invasive pneumococcal isolates for quinupristin resistance; format: cell-based, S. pneumoniae
S. pneumoniae isolates = assay: Antimicrobial susceptibility (NCCLS guidelines) of invasive S. pneumoniae isolates; format: cell-based; details: Streptococcus pneumoniae
[2] = tested on: pneumococci containing ermAM; details: typical value; cited from earlier work

Compound: arsenate
Effect on efflux of [14C]-erythromycin (MefE): decrease in the efflux

Compound: CC[C@H]1NC(=O)[C@@H](NC(=O)c2ncccc2O)[C@@H](C)OC(=O)[C@H](c2ccccc2)NC(=O)[C@@H]2CC(=O)[C@H](CS[C@@H]3CN4CCC3CC4)CN2C(=O)[C@H](Cc2ccc(N(C)C)cc2)N(C)C(=O)[C@@H]2CCCN2C1=O [quinupristin] ({Picolinoyl(3-OH)}-T[dAbu]P[NMePhe(4-NMe2)][X1][Phg]; ester 1-C)
Share of isolates resistant [1]: approximately half were resistant

MIC (S. pneumoniae isolates; eighty-nine mefE-containing isolates, January 1994 to February 1996): ≥ 4 µg/mL
MIC (S. pneumoniae isolates; subset of 336 erythromycin-resistant isolates, 1994-1996 and 1998): 4 µg/mL (≈ 5.45 µM)
Compound: CC[C@H]1OC(=O)[C@H](C)[C@@H](O[C@H]2C[C@@](C)(OC)[C@@H](O)[C@H](C)O2)[C@H](C)[C@@H](O[C@@H]2O[C@H](C)C[C@H](N(C)C)[C@H]2O)[C@](C)(O)C[C@@H](C)C(=O)[C@H](C)[C@@H](O)[C@]1(C)O [erythromycin]
Erythromycin MIC [2]: 64 µg/mL

Compound: N#CC(C#N)=NNc1cccc(Cl)c1 [carbonylcyanide-m-chlorophenylhydrazone]
Effect on efflux of [14C]-erythromycin (MefE): decrease in the efflux
